Source: US11040027B2, “Protein kinase inhibitors for promoting liver regeneration or reducing or preventing hepatocyte death” (HEPAREGENIX GMBH, priority 2017, dated 2021)

What was measured:
BRaf = BRaf (Homo sapiens, UniProt P15056); assay: KINOMEscan competition binding assay, selectivity BRaf versus MKK4; settings: Test conc. 0.1 μM; ratio of percent of control; N/E* per footnote
Experimental: The assay was performed by combining three components: DNA-tagged kinase; immobilized ligand; and a test compound. The ability of the test compound to compete with the immobilized ligand was measured via quantitative PCR of the DNA tag. The technology is described in detail in Fabian, M. A. et al. A small molecule-kinase interaction map for clinical kinase inhibitors. Nat. […] Nat.
The test compounds were provided as 10 mM stock solutions. The test solutions at indicated final concentrations were prepared at DiscoverX.

JNK1 = JNK1 (Homo sapiens, UniProt P45983); assay: KINOMEscan competition binding assay, selectivity JNK1 versus MKK4; settings: ratio of percent of control
MKK4 active = target: T1, MKK4 active (Homo sapiens, UniProt P45985); assay: Radiometric protein kinase assay, MKK4 active; assay type: biochemical; settings: substrate JNK1 KRKR, ATP 0.2 μM, read-out: MKK4 (potency derived from IC50-values)
T1 construct: purchased ProQinase 0948-0000-1
T1 sequence (P45985 1-399): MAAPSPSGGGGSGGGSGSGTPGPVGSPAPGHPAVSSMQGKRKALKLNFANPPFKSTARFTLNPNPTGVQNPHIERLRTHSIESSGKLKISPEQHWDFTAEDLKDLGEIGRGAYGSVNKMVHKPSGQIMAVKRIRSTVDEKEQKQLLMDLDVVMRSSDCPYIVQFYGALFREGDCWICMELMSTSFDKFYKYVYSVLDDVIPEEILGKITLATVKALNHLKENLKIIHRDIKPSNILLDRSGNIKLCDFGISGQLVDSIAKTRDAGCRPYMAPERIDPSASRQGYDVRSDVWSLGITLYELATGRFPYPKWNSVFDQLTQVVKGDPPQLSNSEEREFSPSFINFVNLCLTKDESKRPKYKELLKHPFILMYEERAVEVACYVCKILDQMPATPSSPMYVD
Experimental: (§1) A radiometric protein kinase assay was used for measuring the kinase activity of the respective protein kinases. All kinase assays were performed in 96-well polypropylene plates. After the reactions were stopped, the assay mixtures were transferred to 96-well MSFC filter-plates (Millipore). The reaction mix was passed through the filter membrane by aspiration, the membrane was washed 3 times with 150 mM H3PO4, once with ethanol, dried and liquid scintillation cocktail was added. Radioactivity was determined by counting of the samples in a Microbeta multiwell scintillation counter (Wallac).
(§2) b) Single Kinases • 20 μl standard assay buffer • 5 μl compound in 10% DMSO • 20 μl enzyme-substrate mix • 10 μl of substrate solution
(§3) The reaction cocktails were incubated at 30° C. for 30 minutes.

MEKK2 = target: T2, MEKK2 (Homo sapiens, UniProt Q9Y2U5); assay: Radiometric protein kinase assay, MEKK2; assay type: biochemical; settings: substrate Casein, ATP 0.2 μM; read-out: MEKK2 (potency derived from IC50-values)
T2 construct: purchased ProQinase 0583-0000-1
T2 sequence (Q9Y2U5 1-619): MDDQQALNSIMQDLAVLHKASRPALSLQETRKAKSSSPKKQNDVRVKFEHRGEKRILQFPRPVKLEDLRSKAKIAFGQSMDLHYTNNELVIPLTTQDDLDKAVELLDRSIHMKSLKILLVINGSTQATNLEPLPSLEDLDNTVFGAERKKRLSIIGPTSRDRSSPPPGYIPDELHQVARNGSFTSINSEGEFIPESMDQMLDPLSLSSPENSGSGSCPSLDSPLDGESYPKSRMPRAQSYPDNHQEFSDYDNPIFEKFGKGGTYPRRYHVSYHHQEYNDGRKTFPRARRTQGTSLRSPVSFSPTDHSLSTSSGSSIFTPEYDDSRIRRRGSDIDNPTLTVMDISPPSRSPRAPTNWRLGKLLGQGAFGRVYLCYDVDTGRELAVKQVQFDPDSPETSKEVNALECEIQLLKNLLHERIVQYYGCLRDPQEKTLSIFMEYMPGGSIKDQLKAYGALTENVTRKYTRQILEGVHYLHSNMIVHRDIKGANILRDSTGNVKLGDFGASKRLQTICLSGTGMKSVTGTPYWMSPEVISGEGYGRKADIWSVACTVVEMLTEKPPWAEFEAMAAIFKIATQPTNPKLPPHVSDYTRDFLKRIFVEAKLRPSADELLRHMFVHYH
Experimental: as §1, §2, §3

MKK4 = target: T3, MKK4 (Homo sapiens, UniProt P45985); assay: KINOMEscan competition binding assay, MKK4; settings: read-out: Potency MKK4 (derived from % of control values, PoC)
T3 sequence (P45985 84-399): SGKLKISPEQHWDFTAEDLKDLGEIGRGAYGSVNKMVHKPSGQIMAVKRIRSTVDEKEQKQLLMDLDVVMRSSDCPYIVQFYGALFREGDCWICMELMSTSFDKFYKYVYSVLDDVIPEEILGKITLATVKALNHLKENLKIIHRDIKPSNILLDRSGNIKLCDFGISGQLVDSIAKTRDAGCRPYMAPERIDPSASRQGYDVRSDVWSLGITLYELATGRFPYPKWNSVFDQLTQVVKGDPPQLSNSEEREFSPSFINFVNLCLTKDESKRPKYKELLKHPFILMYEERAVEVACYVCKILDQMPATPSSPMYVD
Experimental: (§4) For investigation of the affinity to MKK4, MKK7 and JNK1, the kinases were produced in HEK-293 cells and subsequently tagged with DNA for qPCR detection. […] The liganded beads were blocked with excess biotin and washed with blocking buffer (SEABLOCK™ (Pierce), 1% BSA, 0.05% TWEEN®20, 1 mM DTT) to remove unbound ligand and to reduce nonspecific binding. […] All reactions were performed in polystyrene 96-well plates in a final volume of 0.135 mL. […] The kinase concentration in the eluates was measured by qPCR.

MKK7 = target: T4, MKK7 (Homo sapiens, UniProt O14733); assay: KINOMEscan competition binding assay, selectivity MKK7 versus MKK4; settings: Test conc. 0.1 μM; ratio of percent of control; N/E* per footnote
T4 sequence (O14733 1-419): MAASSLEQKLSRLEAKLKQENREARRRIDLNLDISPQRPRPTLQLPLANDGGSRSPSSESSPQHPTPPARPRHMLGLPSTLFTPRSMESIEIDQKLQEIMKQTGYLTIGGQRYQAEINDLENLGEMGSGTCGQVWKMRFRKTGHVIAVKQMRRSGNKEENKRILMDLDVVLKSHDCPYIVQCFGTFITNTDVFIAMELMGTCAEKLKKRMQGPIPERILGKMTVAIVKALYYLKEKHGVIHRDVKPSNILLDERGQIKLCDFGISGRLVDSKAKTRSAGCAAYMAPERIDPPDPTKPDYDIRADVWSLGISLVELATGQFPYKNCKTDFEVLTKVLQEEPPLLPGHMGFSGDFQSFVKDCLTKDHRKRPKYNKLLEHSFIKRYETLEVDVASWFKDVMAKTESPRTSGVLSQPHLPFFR
Experimental: as §4

[1] = Test conc 0.1 μM, N/E* = PoC for JNK1 = 100

Sequence of BRaf (P15056 whole entry): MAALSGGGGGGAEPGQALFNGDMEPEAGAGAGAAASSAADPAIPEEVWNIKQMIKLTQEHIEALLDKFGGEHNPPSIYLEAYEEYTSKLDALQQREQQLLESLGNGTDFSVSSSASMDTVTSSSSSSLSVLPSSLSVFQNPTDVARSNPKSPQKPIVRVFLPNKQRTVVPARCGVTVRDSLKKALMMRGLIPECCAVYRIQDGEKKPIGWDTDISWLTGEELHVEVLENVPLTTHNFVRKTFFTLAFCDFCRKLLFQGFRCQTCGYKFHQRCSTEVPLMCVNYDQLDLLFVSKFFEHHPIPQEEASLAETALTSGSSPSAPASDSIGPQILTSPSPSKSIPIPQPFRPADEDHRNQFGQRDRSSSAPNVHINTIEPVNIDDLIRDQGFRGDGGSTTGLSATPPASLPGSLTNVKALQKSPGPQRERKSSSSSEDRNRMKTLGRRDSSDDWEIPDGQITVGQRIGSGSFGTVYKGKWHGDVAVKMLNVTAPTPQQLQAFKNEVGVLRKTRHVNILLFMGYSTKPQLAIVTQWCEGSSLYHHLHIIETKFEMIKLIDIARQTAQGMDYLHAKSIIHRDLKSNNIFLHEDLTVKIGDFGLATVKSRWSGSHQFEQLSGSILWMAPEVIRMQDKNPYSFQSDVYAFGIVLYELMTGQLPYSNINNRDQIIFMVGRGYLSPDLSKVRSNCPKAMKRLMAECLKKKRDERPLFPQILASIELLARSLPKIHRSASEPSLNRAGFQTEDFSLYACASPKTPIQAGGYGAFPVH
Sequence of JNK1 (P45983 1-384 isoform P45983-2): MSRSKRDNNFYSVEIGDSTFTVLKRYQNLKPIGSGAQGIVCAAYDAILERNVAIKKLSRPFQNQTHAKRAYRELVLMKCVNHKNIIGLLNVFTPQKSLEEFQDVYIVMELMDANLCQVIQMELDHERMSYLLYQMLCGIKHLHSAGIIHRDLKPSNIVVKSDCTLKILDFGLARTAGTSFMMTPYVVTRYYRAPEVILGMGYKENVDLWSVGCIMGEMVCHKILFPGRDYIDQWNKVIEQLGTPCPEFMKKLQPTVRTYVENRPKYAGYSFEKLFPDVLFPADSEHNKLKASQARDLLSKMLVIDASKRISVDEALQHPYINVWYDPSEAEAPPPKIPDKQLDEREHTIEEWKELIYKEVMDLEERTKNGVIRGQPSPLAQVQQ

Structure (SMILES)	Selectivity BRaf/MKK4 (BRaf)	Selectivity JNK1/MKK4 (JNK1; [1])	IC50 (MKK4 active)	IC50 (MEKK2)	remaining binding at 0.1 µM (MKK4)	Selectivity MKK7/MKK4 (MKK7)	Selectivity JNK1/MKK4 (JNK1; Test conc 10 μM)
CCCS(=O)(=O)Nc1ccc(F)c(C2(c3c[nH]c4ncc(-c5ccc(Cl)cc5)cc34)OCCO2)c1F [Example 104, N-(3-(2-(5-(4-chlorophenyl)-1H-pyrrolo[2,3-b]pyridin-3-yl)-1,3-dioxolan-2-yl)-2,4-difluorophenyl)propane-1-sulfonamide]	–	–	–	> 10 µM	–	–	–
CCCCS(=O)(=O)Nc1cccc(C(=O)c2c[nH]c3ncc(-c4cc5c(cc4Cl)OCO5)cc23)c1F [Example 55]	N/E* (PoC for JNK1 = 100)	14	< 0.5 µM	> 10 µM	< 10%	N/E* (PoC for JNK1 = 100)	–
CCCS(=O)(=O)Nc1ccc(F)c(C(=O)c2c[nH]c3ncc(-c4cc5c(cc4Cl)OCO5)cc23)c1F [Example 43, N-(3-(5-(6-Chlorobenzo[d][1,3]dioxol-5-yl)-1H-pyrrolo[2,3-b]pyridine-3-carbonyl)-2,4-difluorophenyl)propane-1-sulfonamide]	7.7	N/E* (PoC for JNK1 = 100)	< 0.5 µM	1 to 10 µM	–	9.1	–
CCCS(=O)(=O)Nc1ccc(F)c(C(=O)c2c[nH]c3ncc(-c4ccc(OC)cc4Cl)cc23)c1F [Example 39, N-(3-(5-(2-Chloro-4-methoxyphenyl)-1H-pyrrolo[2,3-b]pyridine-3-carbonyl)-2,4-difluorophenyl)propane-1-sulfonamide]	–	–	–	1 to 10 µM	–	–	–
CCCS(=O)(=O)Nc1ccc(F)c(C(=O)c2c[nH]c3ncc(-c4ccc(OC)cc4)cc23)c1F [Example 3, N-(2,4-Difluoro-3-(5-(4-methoxyphenyl)-1H-pyrrolo[2,3-b]pyridine-3-carbonyl)phenyl)propane-1-sulfonamide]	1.0	–	–	–	10 to 30%	10	>400
CCCS(=O)(=O)Nc1ccc(F)c(C(=O)c2c[nH]c3ncc(-c4ccc(OCCOC)cc4Cl)cc23)c1F [Example 98, N-(3-(5-(2-chloro-4-(2-methoxy-ethoxy)phenyl)-1H-pyrrolo[2,3-b]pyridine-3-carbonyl)-2,4-difluorophenyl)propane-1-sulfonamide]	8.4	16	–	–	< 10%	20	–
CCCCS(=O)(=O)Nc1cccc(C(=O)c2c[nH]c3ncc(-c4ccc(F)cc4C)cc23)c1F [Example 51]	N/E* (PoC for JNK1 = 100)	N/E* (PoC for JNK1 = 100)	–	–	< 10%	N/E* (PoC for JNK1 = 100)	–
CCCS(=O)(=O)Nc1ccc(F)c(C(=O)c2c[nH]c3ncc(-c4cnc5ccccc5c4)cc23)c1F [Example 6, N-(2,4-Difluoro-3-(5-(quinolin-3-yl)-1H-pyrrolo[2,3-b]pyridin-3-carbonyl)phenyl)propane-1-sulfonamide]	0.1	–	–	–	> 30%	5.6	>100

Next, values leading:

Selectivity BRaf/MKK4 (BRaf)	Selectivity JNK1/MKK4 (JNK1; [1])	IC50 (MKK4 active)	IC50 (MEKK2)	remaining binding at 0.1 µM (MKK4)	Selectivity MKK7/MKK4 (MKK7)	Selectivity JNK1/MKK4 (JNK1; Test conc 10 μM)	Structure (SMILES)
4.7	N/E* (PoC for JNK1 = 100)	< 0.5 µM	1 to 10 µM	10 to 30%	5.6	–	CCCS(=O)(=O)Nc1ccc(F)c(C(=O)c2c[nH]c3ncc(-c4ccc(F)cc4Cl)cc23)c1F [Example 40, N-(3-(5-(2-Chloro-4-fluorophenyl)-1H-pyrrolo[2,3-b]pyridine-3-carbonyl)-2,4-difluorophenyl)propane-1-sulfonamide]
–	–	1 to 10 µM	> 10 µM	–	–	–	CCCS(=N)(=O)Nc1ccc(F)c(C(=O)c2c[nH]c3ncc(-c4ccc(Cl)cc4)cc23)c1F (centres unmarked) [Example 112, N-(3-(5-(4-chlorophenyl)-1H-pyrrolo[2,3-b]pyridine-3-carbonyl)-2,4-difluorophenyl)propane-1-sulfonimidamide]
–	–	–	> 10 µM	–	–	–	COCCS(=O)(=O)Nc1ccc(F)c(C(=O)c2c[nH]c3ncc(-c4ccc(Cl)cc4)cc23)c1F [Example 32, N-(3-(5-(4-Chlorophenyl)-1H-pyrrolo[2,3-b]pyridine-3-carbonyl)-2,4-difluorophenyl)-2-methoxyethane-1-sulfonamide]
–	–	–	1 to 10 µM	–	–	–	CCCS(=O)(=O)Nc1ccc(F)c(C(=O)c2c[nH]c3ncc(-c4cccc(N)c4)cc23)c1F [Example 19, N-(3-(5-(3-Aminophenyl)-1H-pyrrolo[2,3-b]pyridine-3-carbonyl)-2,4-difluorophenyl)propane-1-sulfonamide]
–	–	–	< 0.5 µM	–	–	–	O=C(c1c(F)ccc(NS(=O)(=O)CCc2ccccc2)c1F)c1c[nH]c2ncc(-c3ccc(Cl)cc3)cc12 [Example 103, N-(3-(5-(4-chlorophenyl)-1H-pyrrolo[2,3-b]pyridine-3-carbonyl)-2,4-difluorophenyl)-2-phenylethane-1-sulfonamide]
–	–	1 to 10 µM	> 10 µM	–	–	–	CCCS(=O)(=O)Nc1ccc(F)c(C(=O)c2c[nH]c3ncc(-c4ccc(Cl)cc4)cc23)c1Cl [Example 86, N-(2-chloro-3-(5-(4-chlorophenyl)-1H-pyrrolo[2,3-b]pyridine-3-carbonyl)-4-fluorophenyl)propane-1-sulfonamide]
2.5	–	–	–	> 30%	8	>100	CCCS(=O)(=O)Nc1ccc(F)c(C(=O)c2c[nH]c3ncc(-c4ccc(F)c(F)c4)cc23)c1F [Example 16, N-(3-(5-(3,4-Difluorophenyl)-1H-pyrrolo[2,3-b]pyridine-3-carbonyl)-2,4-difluorophenyl)propane-1-sulfonamide]
2.8	–	–	–	10 to 30%	25	>400	CCCS(=O)(=O)Nc1ccc(F)c(C(=O)c2c[nH]c3ncc(-c4ccc(C#N)cc4)cc23)c1F [Example 4, N-(3-(5-(4-Cyanophenyl)-1H-pyrrolo[2,3-b]pyridine-3-carbonyl)-2,4-difluorophenyl)propane-1-sulfonamide]
